Laboratory results published in PMC3293077, “Pharmacokinetics of high-dose oral thiamine hydrochloride in healthy subjects” (BMC Clinical Pharmacology, 2012).
Structures can show the parent of a compound that is named as a salt. Where two headings read alike, the source gives them in different places.

Experiments:
[1] = single oral doses 100, 500, 1500 mg, healthy subjects; study not designed to detect adverse events
Description: Subjects participated in a randomized, double-blind, single-dose, 4-way crossover study with a minimum of 1 week elapsing between trials.

[2] = cited from earlier work
[3] = mean ± SD; for AUC0-10 hr: baseline-corrected
Procedure: Subjects participated in a randomized, double-blind, single-dose, 4-way crossover study with a minimum of 1 week elapsing between trials. The 4 treatment groups were:
Subjects fasted overnight except for water. […] After 1 hour they were administered the study medication. Additional blood specimens were obtained immediately prior to the study medication and at 0.5, 1, 1.5, 2, 3, 4, 5, 6, 8, and 10 hours after taking the study medication. Subjects received a standardized lunch after the 6-hour blood draw. All blood specimens were drawn in duplicate (for plasma and whole blood assays) in 3 mL lavender-top vacutainers® containing K2EDTA. They were immediately placed in an ice bath and protected from the light. One vacutainer® of each pair was centrifuged at 3000 RPM for 20 min at 4°C to separate the plasma. The plasma sample and whole blood sample were then frozen at -70°C.
Thiamine tablets each containing 100 mg of thiamine hydrochloride were used (Amneal Pharmaceuticals). These were placed intact into opaque capsules. Identical capsules containing sucrose tablets were used as placebo such that the same number of capsules were used for each trial.
Quest Diagnostics analyzed all specimens for total thiamine using HPLC [4]. At Quest Diagnostics, plasma was deproteinized and then incubated with acid phosphatase to convert thiamine phosphate esters to free thiamine. The free thiamine was then oxidized to thiochrome by the addition of alkaline potassium ferricyanide. Depending on the age of the column and the temperature of the room, thiochrome retention time varied from 2.5 to 3.0 min. The mixture was injected to a Supelco (Bellefonte, PA, USA) high-performance liquid chromatographic column (7.5 cm^3 4.6 mm, particle size […]) connected to a high-performance liquid chromatographic system using a Hitachi (Pleasant, CA, USA) pump, autosampler, and fluorescent detector (excitation wavelength 365 nm, emission wavelength 440 nm). The mobile phase was 75 mmol/L of potassium phosphate at pH 7.5 with 25% methanol. The flow rate was set at 1.0 mL/min. Through this process, the thiochrome was then separated from other interfering substances and then measured fluorometrically. The amount of total thiamine in an unknown sample is proportional to the amount of thiochrome formed. The limit of quantification is 7 nmol/L. The assay range is 7 to 450 nmol/L. Samples with values above this range were diluted. The coefficient of variation for both the plasma and whole blood thiamine assays was calculated from the data collected in this study.
The thiamine levels were corrected by subtracting the baseline value. The baseline value was calculated as the average of the -1-hour and 0-hour values. Net systemic exposure to thiamine in each subject in each trial was quantitated using the area under the whole blood or plasma concentration curve from time zero through 10 hours after dosage (AUC0-10 hr). This was calculated using the cubic splines method. The overall effect of treatment condition (thiamine dose) on AUC0-10 hr in blood and plasma was tested using analysis of variance (ANOVA) for repeated measures. This was followed by the Student-Newman-Keuls procedure, nonparametric form, for evaluating all pairwise comparisons of the mean AUC0-10 hr values for the dosage groups. The peak thiamine concentration (Cmax) and the time to peak thiamine concentration (Tmax) were also calculated. Finally, half-life (t1\2) values were calculated where the terminal phase appeared log-linear.

[4] = plasma, 100 mg oral single dose
[5] = plasma, 500 mg oral single dose
[6] = plasma, 1500 mg oral single dose
[7] = whole blood, 100 mg oral single dose
[8] = whole blood, 500 mg oral single dose
[9] = whole blood, 1500 mg oral single dose

For `Cc1ncc(C[n+]2csc(CCO)c2C)c(N)n1` [thiamine hydrochloride], the side effects [1] is given as “no side effects were reported”, the adverse effects ([2]; 1000 mg oral three times a day for 2 to 12 months, Alzheimer's disease) is given as “without any reports of adverse effects” and the side effects ([2]; titrated up to 8000 mg per day over 1 year, in 2 subjects at 7000 and 7500 mg per day) is given as “nausea and indigestion”. It also gave an AUC0-10 hr [3, 4] of 0.177 ± 0.062 µM·h, a Cmax [3, 4] of 39 ± 13 nM and an AUC0-10 hr [3, 5] of 0.612 ± 0.257 µM·h. It also gave a Cmax [3, 5] of 113 ± 42 nM, an AUC0-10 hr [3, 6] of 2.059 ± 1.415 µM·h and a Cmax [3, 6] of 397 ± 250 nM. The AUC0-10 hr [3, 7] was 0.214 ± 0.069 µM·h, the Cmax [3, 7] was 40 ± 11 nM and the AUC0-10 hr [3, 8] was 0.623 ± 0.178 µM·h. The Cmax [3, 8] was 95 ± 27 nM, the AUC0-10 hr [3, 9] was 2.046 ± 1.222 µM·h and the Cmax [3, 9] was 385 ± 188 nM.
